Assay results from US10626095B2, “Cyanotriazole compounds” (OTSUKA PHARMACEUTICAL CO., LTD., priority 2013, dated 2020).

Tests used:
[1] = tested on: Zucker Diabetic Fatty (ZDF) rat; assay: Meal load test in type 2 diabetic model rats (postprandial blood glucose); type: in vivo; parameters: unit not given here; settings: ZDF rats fasted overnight, blood glucose one hour after meal loading (50 kcal/kg)
Description: Effects on Type 2 Diabetes: Meal Load Test
To evaluate whether a cyanotriazol compound improves diabetes or not, especially related to postprandial blood glucose, meal load test was performed using one of type 2 diabetic model rats, the Zucker Diabetic Fatty (ZDF) rat (Charles river, Japan). About 24 animals fasted overnight (17 h) were taken blood samples from the tail veins, and measured blood glucose levels (Pre BG) and body weights (BW). Proper animals were selected and divided into […] (n=6) based on the Pre BG and BW using SAS Statistical Analysis System (SAS institute Japan Ltd. Release 9.1). The compounds to be tested (10 or 30 mg/kg body weight in 5% Arabia gum) or Arabia gum solution only (vehicle group) were orally administrated via gavage two hours prior to or just before meal loading (50 kcal/kg body weight). The meal suspension was prepared by mixing purified AIN-93G (Norsan Corp, Yokohama, Japan) and distilled water (2:3, w/v). One-hour after meal loading, blood glucose (BG1h) of each animal was measured. Effectiveness of each compound was shown by ? BG1h (BG1h difference between compound group and vehicle group). Although a set of 24 animals was used several times (from 13 weeks to 21 weeks of age), at least a one-week interval was placed from one to another test.

[2] = tested on: NaCT-CHO (CHO cells stably expressing human NaCT); assay: Assay of the citric acid cycle activation ([1,5-14C]-citric acid, diffusion of [14C]-CO2); type: cell-based; settings: 1 hour incubation at 37° C. with [1,5-14C]-citric acid
Outline: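 NaCT-CHO cells (pME-CHO empty-vector cells for non-specific counts) were incubated 1 h at 37 °C in Na+-containing HEPES-Tris pH 7.4 with compound plus an equal volume of 0.4 mM [1,5-14C]-citric acid solution. Residual cell radioactivity was counted, [14C]-CO2 diffusion was taken as (Total−R)/(Total−NS)×100%, and EC50 was derived by regression.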

SMILES: Cc1cc(-c2ccc(C(F)(F)F)cn2)cc(-c2nn[nH]c2C#N)c1 [Example 807, 5-[3-methyl-5-(5-trifluoromethyl-pyridin-2-yl)-phenyl]-3H-[1,2,3]triazole-4-carbonitrile]
- BG1h (BG1h difference between compound group and vehicle group) ([1]; oral 10 mg/kg in 5% Arabia gum): −94.5
- EC50 [2]: 1100 nM

SMILES: N#Cc1[nH]nnc1-c1csc(-c2ccc(Cl)cc2)n1 [Example 75, 5-[2-(4-chloro-phenyl)-thiazol-4-yl]-3H-[1,2,3]triazole-4-carbonitrile]
- BG1h (BG1h difference between compound group and vehicle group) ([1]; oral 10 mg/kg in 5% Arabia gum): −83.2
- EC50 [2]: 880 nM

SMILES: N#Cc1[nH]nnc1-c1cccc(/C=C/c2cccc(C(F)(F)F)n2)c1 [Example 1018, 5-{3-[(E)-2-(6-trifluoromethyl-pyridin-2-yl)-vinyl]-phenyl}-3H-[1,2,3]triazole-4-carbonitrile]
- BG1h (BG1h difference between compound group and vehicle group) ([1]; oral 10 mg/kg in 5% Arabia gum): −59.2
- EC50 [2]: 1170 nM

SMILES: CCOc1cc(/C=C/c2cccc(C(F)(F)F)c2)cc(-c2nn[nH]c2C#N)c1 [Example 644, 5-{3-ethoxy-5-[(E)-2-(3-trifluoromethyl-phenyl)-vinyl]-phenyl}-3H-[1,2,3]triazole-4-carbonitrile]
- BG1h (BG1h difference between compound group and vehicle group) ([1]; oral 10 mg/kg in 5% Arabia gum): −131.0
- EC50 [2]: 2350 nM

SMILES: N#Cc1[nH]nnc1-c1cc(/C=C/c2cccc(C(F)(F)F)c2)cc(C(F)(F)F)c1 [Example 620, 5-{3-trifluoromethyl-5-[(E)-2-(3-trifluoromethyl-phenyl)-vinyl]-phenyl}-3H-[1,2,3]triazole-4-carbonitrile]
- BG1h (BG1h difference between compound group and vehicle group) ([1]; oral 10 mg/kg in 5% Arabia gum): −159.7
- EC50 [2]: 1450 nM

SMILES: N#Cc1[nH]nnc1-c1cccc(/C=C/c2cncc(C(F)(F)F)c2)c1 [Example 49, 5-{3-[(E)-2-(5-trifluoromethyl-pyridin-3-yl)-vinyl]-phenyl}-3H-[1,2,3]triazole-4-carbonitrile]
- BG1h (BG1h difference between compound group and vehicle group) ([1]; oral 10 mg/kg in 5% Arabia gum): −78.7
- EC50 [2]: 480 nM

SMILES: N#Cc1[nH]nnc1-c1cc(N2CCCCC2)nc(-c2ccccc2)n1 [Example 1672, 5-(2-phenyl-6-(piperidin-1-yl)-pyrimidin-4-yl)-3H-[1,2,3]triazole-4-carbonitrile]
- BG1h (BG1h difference between compound group and vehicle group) ([1]; oral 10 mg/kg in 5% Arabia gum): −94.8
- EC50 [2]: 1290 nM

SMILES: N#Cc1[nH]nnc1-c1ccc2ccn(CCCC(F)(F)F)c2c1 [Example 146]
- BG1h (BG1h difference between compound group and vehicle group) ([1]; oral 10 mg/kg in 5% Arabia gum): −94.9
- EC50 [2]: 410 nM

SMILES: N#Cc1[nH]nnc1-c1cccc(/C=C/c2ccc(F)c(C(F)(F)F)c2)c1 [Example 663, 5-{3-[(E)-2-(4-fluoro-3-trifluoromethyl-phenyl)-vinyl]-phenyl}-3H-[1,2,3]triazole-4-carbonitrile]
- BG1h (BG1h difference between compound group and vehicle group) ([1]; oral 10 mg/kg in 5% Arabia gum): −149.5
- EC50 [2]: 1250 nM

SMILES: Cc1sc(-c2ccc(C(F)(F)F)cc2)nc1-c1nn[nH]c1C#N [Example 92, 5-[5-methyl-2-(4-trifluoromethyl-phenyl)-thiazol-4-yl]-3H-[1,2,3]triazole-4-carbonitrile]
- BG1h (BG1h difference between compound group and vehicle group) ([1]; oral 10 mg/kg in 5% Arabia gum): −69.2
- EC50 [2]: 820 nM

SMILES: N#Cc1[nH]nnc1-c1cc(Cl)cc(/C=C/c2cc(C(F)(F)F)cc(C(F)(F)F)c2)c1 [Example 610, 5-{3-[(E)-2-(3,5-bis-trifluoromethyl-phenyl)-vinyl]-5-chloro-phenyl}-3H-[1,2,3]triazole-4-carbonitrile]
- BG1h (BG1h difference between compound group and vehicle group) ([1]; oral 10 mg/kg in 5% Arabia gum): −86.8
- EC50 [2]: 1740 nM

SMILES: N#Cc1[nH]nnc1-c1cc(Cl)cc(-c2cc(C(F)(F)F)cc(C(F)(F)F)c2)c1 [Example 275, 5-(5-chloro-3′,5′-bis-trifluoromethyl-biphenyl-3-yl)-3H-[1,2,3]triazole-4-carbonitrile]
- BG1h (BG1h difference between compound group and vehicle group) ([1]; oral 10 mg/kg in 5% Arabia gum): −83.3
- EC50 [2]: 1040 nM

SMILES: N#Cc1[nH]nnc1-c1cccc(/C=C/c2ccc(F)cc2)c1 [Example 640, 5-{3-[(E)-2-(4-fluoro-phenyl)-vinyl]-phenyl}-3H-[1,2,3]triazole-4-carbonitrile]
- BG1h (BG1h difference between compound group and vehicle group) ([1]; oral 10 mg/kg in 5% Arabia gum): −62.0
- EC50 [2]: 670 nM

SMILES: COc1cc(/C=C/c2cccc(C(F)(F)F)c2)cc(-c2nn[nH]c2C#N)c1 [Example 657, 5-{3-methoxy-5-[(E)-2-(3-trifluoromethyl-phenyl)-vinyl]-phenyl}-3H-[1,2,3]triazole-4-carbonitrile]
- BG1h (BG1h difference between compound group and vehicle group) ([1]; oral 10 mg/kg in 5% Arabia gum): −120.5
- EC50 [2]: 1160 nM

SMILES: N#Cc1[nH]nnc1-c1cc(Cl)cc(-c2ccc(OC(F)(F)F)cc2)c1 [Example 29, 5-(5-chloro-4′-trifluoromethoxy-biphenyl-3-yl)-3H-[1,2,3]triazole-4-carbonitrile]
- BG1h (BG1h difference between compound group and vehicle group) ([1]; oral 10 mg/kg in 5% Arabia gum): −37.3
- EC50 [2]: 680 nM

SMILES: CC(C)c1oc(-c2ccc(Cl)cc2)nc1-c1nn(C(C)OC(=O)OCC(C)(C)C(=O)O)nc1C#N (centres unmarked) [Example 1822, 3-(1-{4-[2-(4-chloro-phenyl)-5-isopropyl-oxazol-4-yl]-5-cyano-2H-[1,2,3]triazol-2-yl}-ethoxycarbonyloxy)-2,2-dimethyl-propionic acid]
- BG1h (BG1h difference between compound group and vehicle group) ([1]; oral 30 mg/kg in 5% Arabia gum): −36.0

SMILES: CC(OC(=O)OC(C)(C)CC(=O)O)n1nc(C#N)c(-c2cccc(OCc3cc(C(F)(F)F)ccc3C(F)(F)F)c2)n1 (centres unmarked) [Example 1827, 3-(1-{4-[3-(2,5-bis-trifluoromethylbenzyloxy)phenyl]-5-cyano-2H-[1,2,3]triazol-2-yl}ethoxycarbonyloxy)-3-methylbutyric acid]
- BG1h (BG1h difference between compound group and vehicle group) ([1]; oral 30 mg/kg in 5% Arabia gum): −82.5

SMILES: Cc1sc(-c2ccc(C(F)(F)F)cc2)nc1-c1nn(C(C)OC(=O)OCC(C)(C)C(=O)O)nc1C#N (centres unmarked) [Example 1820, 3-(1-{4-cyano-5-[5-methyl-2-(4-trifluoromethyl-phenyl)-thiazol-4-yl]-2H-[1,2,3]triazol-2-yl}-ethoxycarbonyloxy)-2,2-dimethyl-propionic acid]
- BG1h (BG1h difference between compound group and vehicle group) ([1]; oral 30 mg/kg in 5% Arabia gum): −77.0

SMILES: CC(OC(=O)OCC(C)(C)C(=O)O)n1nc(C#N)c(-c2cc(Cl)cc(/C=C/c3cccc(C(F)(F)F)c3)c2)n1 (centres unmarked) [Example 1811, 3-[1-(4-{3-chloro-5-[(E)-2-(3-trifluoromethyl-phenyl)-vinyl]-phenyl}-5-cyano-2H-[1,2,3]triazol-2-yl)-ethoxycarbonyloxy]-2,2-dimethyl-propionic acid]
- BG1h (BG1h difference between compound group and vehicle group) ([1]; oral 30 mg/kg in 5% Arabia gum): −84.5

SMILES: Cc1sc(-c2ccc(F)c(Cl)c2)nc1-c1nn(C(C)OC(=O)OCC(C)(C)C(=O)O)nc1C#N (centres unmarked) [Example 1823, 3-(1-{4-[2-(3-chloro-4-fluoro-phenyl)-5-methyl-thiazol-4-yl]-5-cyano-2H-[1,2,3]triazol-2-yl}-ethoxycarbonyloxy)-2,2-dimethyl-propionic acid]
- BG1h (BG1h difference between compound group and vehicle group) ([1]; oral 30 mg/kg in 5% Arabia gum): −63.3

SMILES: CC(=O)OCn1nc(C#N)c(-c2cc(C)cc(-c3nccc(C(F)(F)F)n3)c2)n1 [Example 1829, acetic acid 4-cyano-5-[3-methyl-5-(4-trifluoromethylpyrimidin-2-yl)phenyl]-2H-[1,2,3]triazol-2-ylmethyl ester]
- BG1h (BG1h difference between compound group and vehicle group) ([1]; oral 30 mg/kg in 5% Arabia gum): −93.7

SMILES: CC(OC(=O)OCCO)n1nc(C#N)c(-c2cccc(OCc3cc(C(F)(F)F)ccc3C(F)(F)F)c2)n1 (centres unmarked) [Example 1828, carbonic acid 1-{4-[3-(2,5-bis-trifluoromethylbenzyloxy)phenyl]-5-cyano-2H-[1,2,3]triazol-2-yl}ethyl ester-2-hydroxyethyl ester]
- BG1h (BG1h difference between compound group and vehicle group) ([1]; oral 30 mg/kg in 5% Arabia gum): −69.3

SMILES: CC(OC(=O)OCC(C)(C)C(=O)O)n1nc(C#N)c(-c2cc(/C=C/c3cccc(C(F)(F)F)n3)cc(C(F)(F)F)c2)n1 (centres unmarked) [Example 1813, 3-[1-(4-cyano-5-{3-trifluoromethyl-5-[(E)-2-(6-trifluoromethyl-pyridin-2-yl)-vinyl]-phenyl}-2H-[1,2,3]triazol-2-yl)-ethoxycarbonyloxy]-2,2-dimethyl-propionic acid]
- BG1h (BG1h difference between compound group and vehicle group) ([1]; oral 30 mg/kg in 5% Arabia gum): −73.0

SMILES: CC(OC(=O)OCC(C)(C)C(=O)O)n1nc(C#N)c(-c2csc(-c3ccc(Cl)c(Cl)c3)n2)n1 (centres unmarked) [Example 1819, 3-(1-{4-cyano-5-[2-(3,4-dichloro-phenyl)-thiazol-4-yl]-2H-[1,2,3]triazol-2-yl}-ethoxycarbonyloxy)-2,2-dimethyl-propionic acid]
- BG1h (BG1h difference between compound group and vehicle group) ([1]; oral 30 mg/kg in 5% Arabia gum): −54.3

SMILES: CC(OC(=O)OCC(C)(C)C(=O)O)n1nc(C#N)c(-c2csc(-c3cccc(OC(F)(F)F)c3)n2)n1 (centres unmarked) [Example 1818, 3-(1-{4-cyano-5-[2-(3-trifluoromethoxy-phenyl)-thiazol-4-yl]-2H-[1,2,3]triazol-2-yl}-ethoxycarbonyloxy)-2,2-dimethyl-propionic acid]
- BG1h (BG1h difference between compound group and vehicle group) ([1]; oral 30 mg/kg in 5% Arabia gum): −33.0

SMILES: CC(OC(=O)OCC(C)(C)C(=O)O)n1nc(C#N)c(-c2cccc(OCc3cc(C(F)(F)F)ccc3C(F)(F)F)c2)n1 (centres unmarked) [Example 1806, 3-(1-{4-[3-(2,5-bis-trifluoromethyl-benzyloxy)-phenyl]-5-cyano-2H-[1,2,3]triazol-2-yl}-ethoxycarbonyloxy)-2,2-dimethyl-propionic acid]
- BG1h (BG1h difference between compound group and vehicle group) ([1]; oral 30 mg/kg in 5% Arabia gum): −86.3
